Test results taken from patent US12281149B2, “Modulators of G-protein coupled receptors” (priority 2021, dated 2025).
*1 amine or outer side, *2 acyl side, *3 side chain or, on linkers, in order; H or OH if unused. Where a SMILES comes first, the peptide text is derived from it. Side-chain parts run from the residue outwards. [ ]: non-standard residue; d: D form. The star is where a group is joined. Isobutyryl(2-(3-CN-5-F-Ph)) = CC(C)(C(=O)*)c1cc(F)cc(C#N)c1; β2hLeu(2S) = CC(C)C[C@@H](CN[*:1])C(=O)[*:2]; C20 diacid = O=C(O)CCCCCCCCCCCCCCCCCCC(=O)*; βPro(3S) = O=C([C@H]1CCN([*:1])C1)[*:2]; γGlu = O=C(O)[C@H](CCC(=O)[*:2])N[*:1]; X57 = CO[C@@H](CN[*:1])C(=O)[*:2]; X32 = CC(C)(CN[*:1])C(=O)[*:2]; AEEA = NCCOCCOCC(=O)O; Aib = CC(C)(N)C(=O)O; βAla = NCCC(=O)O

Columns and labels:
Type in all cases: cell-based
GLP-1 receptor [1] = target: T1, GLP-1 receptor (Homo sapiens, UniProt P43220); assay: HitHunter cAMP assay, GLP-1 receptor; conditions: for EC50: CHO cells stably expressing human GLP-1 receptor, cAMP accumulation, 30 min, read-out: EC50 GLP-1R; for Emax: CHO cells, cAMP, normalized to maximum signal from GLP-1 (high) and DMSO (low), read-out: Emax GLP-1R
T1 sequence (P43220 24-463): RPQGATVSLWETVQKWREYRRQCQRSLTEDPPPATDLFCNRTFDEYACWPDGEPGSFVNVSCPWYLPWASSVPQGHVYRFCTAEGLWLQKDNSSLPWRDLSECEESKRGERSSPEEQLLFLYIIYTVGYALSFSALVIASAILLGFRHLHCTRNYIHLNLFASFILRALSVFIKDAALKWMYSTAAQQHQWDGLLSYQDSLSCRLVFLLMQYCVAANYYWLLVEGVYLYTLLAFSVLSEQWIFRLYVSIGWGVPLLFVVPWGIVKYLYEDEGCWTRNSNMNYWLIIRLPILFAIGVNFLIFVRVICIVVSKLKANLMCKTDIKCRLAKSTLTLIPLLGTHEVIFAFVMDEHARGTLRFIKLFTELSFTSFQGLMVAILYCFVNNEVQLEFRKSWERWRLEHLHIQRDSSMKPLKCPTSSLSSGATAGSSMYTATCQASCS

GIP receptor [2] = target: T2, GIP receptor (Homo sapiens, UniProt P48546); assay: PathHunter β-arrestin assay, GIP receptor; design: host or cells: PathHunter CHO-K1 GIPR β-Arrestin Cell Line; conditions: β-arrestin-2 recruitment, PathHunter CHO-K1 GIPR β-Arrestin Cell Line, 90 min at 37° C.; normalized to GIP; read-out: GIPR β Arrestin EC50
T2 sequence (P48546 22-466): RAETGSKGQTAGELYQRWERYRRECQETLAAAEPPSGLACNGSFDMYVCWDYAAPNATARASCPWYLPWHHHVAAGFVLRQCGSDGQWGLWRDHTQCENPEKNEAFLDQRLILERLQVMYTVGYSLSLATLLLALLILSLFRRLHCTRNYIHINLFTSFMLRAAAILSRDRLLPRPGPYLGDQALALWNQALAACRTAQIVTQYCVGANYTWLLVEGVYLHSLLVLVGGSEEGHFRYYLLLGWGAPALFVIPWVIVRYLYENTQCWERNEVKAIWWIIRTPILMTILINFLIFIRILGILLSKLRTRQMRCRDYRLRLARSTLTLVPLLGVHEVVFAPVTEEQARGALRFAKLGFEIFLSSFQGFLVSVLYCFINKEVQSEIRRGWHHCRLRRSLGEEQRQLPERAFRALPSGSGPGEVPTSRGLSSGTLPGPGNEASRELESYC

GIP receptor [3] = target: T2, GIP receptor; assay: HitHunter cAMP assay, GIP receptor; conditions: for EC50: CHO cells stably expressing GIP receptor, cAMP accumulation, 30 min, read-out: EC50 GIP-1R; for Emax: CHO cells, cAMP, normalized to maximum signal from GIP (high) and DMSO (low), read-out: Emax GIP-1R
GLP-1 receptor [4] = target: T1, GLP-1 receptor; assay: PathHunter β-arrestin assay, GLP-1 receptor; design: host or cells: PathHunter CHO-K1 GLP1R β-Arrestin Cell Line; conditions: β-arrestin-2 recruitment, PathHunter CHO-K1 GLP1R β-Arrestin Cell Line, 90 min at 37° C.; normalized to GLP-1; read-out: GLP-1R β Arrestin EC50

Row | Structure (SMILES) | EC50 (GLP-1 receptor [1]) [nM] | Emax (GLP-1 receptor [1]) [%] | EC50 (GIP receptor [2]) [nM] | EC50 (GIP receptor [3]) [nM] | Emax (GIP receptor [3]) [%] | EC50 (GLP-1 receptor [4]) [nM]
1 | CC[C@H](C)[C@H](NC(=O)[C@H](CC(C)C)NC(=O)[C@H](Cc1c[nH]c2ccccc12)NC(=O)[C@H](CCC(N)=O)NC(=O)[C@@H](NC(=O)[C@H](Cc1ccccc1)NC(=O)[C@H](C)NC(=O)[C@H](CCCCNC(=O)COCCOCCNC(=O)COCCOCCNC(=O)CC[C@H](NC(=O)CCCCCCCCCCCCCCCCCCC(=O)O)C(=O)O)NC(=O)[C@H](CCC(N)=O)NC(=O)[C@H](C)NC(=O)[C@@H](NC(=O)[C@H](CCCCN)NC(=O)[C@H](CC(=O)O)NC(=O)[C@H](CC(C)C)NC(=O)C(C)(C)NC(=O)[C@@H](NC(=O)[C@H](CO)NC(=O)[C@H](Cc1ccc(O)cc1)NC(=O)[C@H](CC(=O)O)NC(=O)[C@H](CO)NC(=O)[C@@H](NC(=O)[C@H](Cc1ccccc1)NC(=O)[C@@H](NC(=O)CNC(=O)[C@H](CCC(=O)O)NC(=O)C(C)(C)CNC(=O)C(C)(C)c1cc(F)cc(C#N)c1)[C@@H](C)O)[C@@H](C)O)[C@@H](C)CC)[C@@H](C)CC)C(C)C)C(=O)N[C@@H](C)C(=O)NCC(=O)NCC(=O)N1CCC[C@H]1C(=O)N[C@@H](CO)C(=O)N[C@@H](CO)C(=O)NCC(=O)N[C@@H](C)C(=O)N1CCC[C@H]1C(=O)N1CCC[C@H]1C(=O)N1CCC[C@H]1C(=O)N[C@@H](CO)C(N)=O [Compound 192] ({Isobutyryl(2-(3-CN-5-F-Ph))}-[X32]EGTFTSDYSI[Aib]LDKIAQK([AEEA-AEEA-γGlu-C20 diacid])AFVQWLIAGGPSSGAPPPS-NH2) | 0.1 to 1 | 101 | > 1000 | 1 to 10 | 104 | > 1000
2 | CC[C@H](C)[C@H](NC(=O)[C@H](CC(C)C)NC(=O)[C@H](Cc1c[nH]c2ccccc12)NC(=O)[C@H](CCC(N)=O)NC(=O)[C@@H](NC(=O)[C@H](Cc1ccccc1)NC(=O)[C@H](C)NC(=O)[C@H](CCCCNC(=O)COCCOCCNC(=O)COCCOCCNC(=O)CC[C@H](NC(=O)CCCCCCCCCCCCCCCCCCC(=O)O)C(=O)O)NC(=O)[C@H](CCC(N)=O)NC(=O)[C@H](C)NC(=O)[C@@H](NC(=O)[C@H](CCCCN)NC(=O)[C@H](CC(=O)O)NC(=O)[C@H](CC(C)C)NC(=O)C(C)(C)NC(=O)[C@@H](NC(=O)[C@H](CO)NC(=O)[C@H](Cc1ccc(O)cc1)NC(=O)[C@H](CC(=O)O)NC(=O)[C@H](CO)NC(=O)[C@@H](NC(=O)[C@H](Cc1ccccc1)NC(=O)[C@@H](NC(=O)CNC(=O)[C@H](CCC(=O)O)NC(=O)[C@H](CNC(=O)C(C)(C)c1cc(F)cc(C#N)c1)CC(C)C)[C@@H](C)O)[C@@H](C)O)[C@@H](C)CC)[C@@H](C)CC)C(C)C)C(=O)N[C@@H](C)C(=O)NCC(=O)NCC(=O)N1CCC[C@H]1C(=O)N[C@@H](CO)C(=O)N[C@@H](CO)C(=O)NCC(=O)N[C@@H](C)C(=O)N1CCC[C@H]1C(=O)N1CCC[C@H]1C(=O)N1CCC[C@H]1C(=O)N[C@@H](CO)C(N)=O [Compound 193] ({Isobutyryl(2-(3-CN-5-F-Ph))}-[β2hLeu(2S)]EGTFTSDYSI[Aib]LDKIAQK([AEEA-AEEA-γGlu-C20 diacid])AFVQWLIAGGPSSGAPPPS-NH2) | 10 to 100 | 77 | > 1000 | 100 to 1000 | 70 | > 1000
3 | CC[C@H](C)[C@H](NC(=O)[C@H](CC(C)C)NC(=O)[C@H](Cc1c[nH]c2ccccc12)NC(=O)[C@H](CCC(N)=O)NC(=O)[C@@H](NC(=O)[C@H](Cc1ccccc1)NC(=O)[C@H](C)NC(=O)[C@H](CCCCNC(=O)COCCOCCNC(=O)COCCOCCNC(=O)CC[C@H](NC(=O)CCCCCCCCCCCCCCCCCCC(=O)O)C(=O)O)NC(=O)[C@H](CCC(N)=O)NC(=O)[C@H](C)NC(=O)[C@@H](NC(=O)[C@H](CCCCN)NC(=O)[C@H](CC(=O)O)NC(=O)[C@H](CC(C)C)NC(=O)C(C)(C)NC(=O)[C@@H](NC(=O)[C@H](CO)NC(=O)[C@H](Cc1ccc(O)cc1)NC(=O)[C@H](CC(=O)O)NC(=O)[C@H](CO)NC(=O)[C@@H](NC(=O)[C@H](Cc1ccccc1)NC(=O)[C@@H](NC(=O)CNC(=O)[C@H](CCC(=O)O)NC(=O)[C@H](CNC(=O)C(C)(C)c1cc(F)cc(C#N)c1)OC)[C@@H](C)O)[C@@H](C)O)[C@@H](C)CC)[C@@H](C)CC)C(C)C)C(=O)N[C@@H](C)C(=O)NCC(=O)NCC(=O)N1CCC[C@H]1C(=O)N[C@@H](CO)C(=O)N[C@@H](CO)C(=O)NCC(=O)N[C@@H](C)C(=O)N1CCC[C@H]1C(=O)N1CCC[C@H]1C(=O)N1CCC[C@H]1C(=O)N[C@@H](CO)C(N)=O [Compound 194] ({Isobutyryl(2-(3-CN-5-F-Ph))}-[X57]EGTFTSDYSI[Aib]LDKIAQK([AEEA-AEEA-γGlu-C20 diacid])AFVQWLIAGGPSSGAPPPS-NH2) | 10 to 100 | 80 | > 1000 | 10 to 100 | 78 | > 1000
4 | CC[C@H](C)[C@H](NC(=O)[C@H](CC(C)C)NC(=O)[C@H](Cc1c[nH]c2ccccc12)NC(=O)[C@H](CCC(N)=O)NC(=O)[C@@H](NC(=O)[C@H](Cc1ccccc1)NC(=O)[C@H](C)NC(=O)[C@H](CCCCNC(=O)COCCOCCNC(=O)COCCOCCNC(=O)CC[C@H](NC(=O)CCCCCCCCCCCCCCCCCCC(=O)O)C(=O)O)NC(=O)[C@H](CCC(N)=O)NC(=O)[C@H](C)NC(=O)[C@@H](NC(=O)[C@H](CCCCN)NC(=O)[C@H](CC(=O)O)NC(=O)[C@H](CC(C)C)NC(=O)C(C)(C)NC(=O)[C@@H](NC(=O)[C@H](CO)NC(=O)[C@H](Cc1ccc(O)cc1)NC(=O)[C@H](CC(=O)O)NC(=O)[C@H](CO)NC(=O)[C@@H](NC(=O)[C@H](Cc1ccccc1)NC(=O)[C@@H](NC(=O)CNC(=O)[C@H](CCC(=O)O)NC(=O)[C@H]1CCN(C(=O)C(C)(C)c2cc(F)cc(C#N)c2)C1)[C@@H](C)O)[C@@H](C)O)[C@@H](C)CC)[C@@H](C)CC)C(C)C)C(=O)N[C@@H](C)C(=O)NCC(=O)NCC(=O)N1CCC[C@H]1C(=O)N[C@@H](CO)C(=O)N[C@@H](CO)C(=O)NCC(=O)N[C@@H](C)C(=O)N1CCC[C@H]1C(=O)N1CCC[C@H]1C(=O)N1CCC[C@H]1C(=O)N[C@@H](CO)C(N)=O [Compound 195] ({Isobutyryl(2-(3-CN-5-F-Ph))}-[βPro(3S)]EGTFTSDYSI[Aib]LDKIAQK([AEEA-AEEA-γGlu-C20 diacid])AFVQWLIAGGPSSGAPPPS-NH2) | 100 to 1000 | 51 | > 1000 | 100 to 1000 | 72 | > 1000
5 | CC[C@H](C)[C@H](NC(=O)[C@H](CC(C)C)NC(=O)[C@H](Cc1c[nH]c2ccccc12)NC(=O)[C@H](CCC(N)=O)NC(=O)[C@@H](NC(=O)[C@H](Cc1ccccc1)NC(=O)[C@H](CCC(=O)O)NC(=O)[C@H](CCCCNC(=O)COCCOCCNC(=O)COCCOCCNC(=O)CC[C@H](NC(=O)CCCCCCCCCCCCCCCCCCC(=O)O)C(=O)O)NC(=O)[C@H](CCC(N)=O)NC(=O)[C@H](C)NC(=O)[C@@H](NC(=O)[C@H](CCCCN)NC(=O)[C@H](CC(=O)O)NC(=O)[C@H](CC(C)C)NC(=O)C(C)(C)NC(=O)[C@@H](NC(=O)[C@H](CO)NC(=O)[C@H](Cc1ccc(O)cc1)NC(=O)[C@H](CC(=O)O)NC(=O)[C@H](CO)NC(=O)[C@@H](NC(=O)[C@H](Cc1ccccc1)NC(=O)[C@@H](NC(=O)CNC(=O)[C@H](CCC(=O)O)NC(=O)CCNC(=O)C(C)(C)c1cc(F)cc(C#N)c1)[C@@H](C)O)[C@@H](C)O)[C@@H](C)CC)[C@@H](C)CC)C(C)C)C(=O)N[C@@H](C)C(=O)NCC(=O)NCC(=O)N1CCC[C@H]1C(=O)N[C@@H](CO)C(=O)N[C@@H](CO)C(=O)NCC(=O)N[C@@H](C)C(=O)N1CCC[C@H]1C(=O)N1CCC[C@H]1C(=O)N1CCC[C@H]1C(=O)N[C@@H](CO)C(N)=O [Compound 196] ({Isobutyryl(2-(3-CN-5-F-Ph))-βAla}-EGTFTSDYSI[Aib]LDKIAQK([AEEA-AEEA-γGlu-C20 diacid])EFVQWLIAGGPSSGAPPPS-NH2) | 0.1 to 1 | 95 | > 1000 | 1 to 10 | 100 | > 1000
